The text below walks through data of PMC8749467, “A new ALK inhibitor overcomes resistance to first‐ and second‐generation inhibitors in NSCLC” (EMBO Molecular Medicine, 2021).

Read-outs that look alike come from different tables or passages of the source.

A short description of data set [1]: Pharmacokinetics in ICR mice.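 On all read-outs here: drug levels in collected samples measured by LC-MS/MS.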 The class given is in vivo. The following applies: for concentration at […] / concentration at 0.25 h / concentration at 0.5 h / concentration at 1 h / concentration at 2 h / concentration at 4 h / concentration at 8 h / concentration at 24 h: ICR, blood, read-out: Blood drug concentration; for concentration at […]: 0.083 h; for MRT inf: read-out: MRT(0-∞); for Vd: read-out: Vz.
Description: Then the samples were quantified by LC-MS/MS, and data analysis was conducted using WinNonlin V6.3. IV = intravenous injection, PO = oral delivery, Tmax = time of maximum plasma concentration, Cmax = maximum plasma concentration, AUC = area under the curve (measure of exposure), T1/2 = half life, CL = plasma clearance, Vz = volume of distribution, F = oral bioavailability.

The next data set has as its system EML4-ALK Ba/F3 cells. Nature of the data set: Cell survival assay (MTS). As to conditions: EML4-ALK Ba/F3, 48 h.
The test system of a further data set is kinase panels. The following applies: cited from earlier work.
Data set [2] concerns parental (wild-type) Ba/F3 cells. Nature of the data set: Cell survival assay (MTS). The following applies: Mus musculus, BaF3, 48 h. It counts as cell-based, murine.
Description: (§1) The murine Pro‐B cell line Ba/F3 cells were provided by Jianming Zhang from Shanghai Jiaotong University. All cells were authenticated by short tandem repeat testing and tested negative for mycoplasma contamination using Luminescent Mycoplasma Detection Kit (Beyotime, Shanghai, China). […] All of these cell lines were maintained at 37°C and 5% CO2.
(§2) Cell viability was determined by MTS assay (Promega).
Setting [3] is: mouse, plasma, IV, 5 mg/kg, ICR mice.
The mark [4] stands for this setting: mouse, plasma, IV, 30 mg/kg, ICR mice.
Where [5] appears, read: mouse, plasma, IV, 60 mg/kg, ICR mice.
Setting [6] is: mouse, plasma, PO, 10 mg/kg, ICR mice.
Setting [7] is: reported data ref Huber et al, 2014.

Description for EML4-ALK Ba/F3 cells: as §1, §2

As a reminder, the AUC(0-inf) is the area under the concentration-time curve extrapolated to infinity. High values mean more exposure, low ones less exposure. As usually defined, the AUC(0-t) is exposure summed from dosing to a finite time, without extrapolation to infinity. A low value points to less exposure. A word on the Cmax: it is the highest concentration seen after dosing. As usually defined, the Tmax is the time at which the peak concentration occurs. In general, clearance refers to the volume of plasma or blood freed of the substance per unit of time. Lower therefore signals a low capacity for elimination. What is called half-life is how long it takes for the measured level to halve. The term bioavailability denotes the share of a dose that reaches the circulation, judged against a reference dose that is usually intravenous. Turning to `COc1cc2c(cc1Nc1nc(Nc3ccccc3S(=O)(=O)C(C)C)c3[nH]ccc3n1)N(C(=O)CN(C)C)CC2` [XMU-MP-5], in data set [1] (mouse, IV, 5 mg/kg, mice), the concentration at […] amounted to 4300 ng/mL, the concentration at 0.25 h is 2430 ng/mL, the concentration at 0.5 h worked out at 1530 ng/mL and the concentration at 1 h turned out to be 613 ng/mL. In addition, in data set [1] (mouse, IV, 5 mg/kg, mice), the concentration at 2 h came to 308 ng/mL, the concentration at 4 h amounted to 72.8 ng/mL, the concentration at 8 h came to 28.7 ng/mL and the concentration at 24 h came out at 2.09 ng/mL. Also, in data set [1] (mouse, IV, 30 mg/kg, mice), the concentration at […] is 8260 ng/mL, the concentration at 0.25 h stood at 5430 ng/mL, the concentration at 0.5 h came to 3870 ng/mL and the concentration at 1 h was 2990 ng/mL. In data set [1] (mouse, IV, 30 mg/kg, mice), the concentration at 2 h is 2060 ng/mL, the concentration at 4 h came to 688 ng/mL, the concentration at 8 h came to 171 ng/mL and the concentration at 24 h is 17.9 ng/mL. Besides, in data set [1] (mouse, IV, 60 mg/kg, mice), the concentration at […] was 12400 ng/mL, the concentration at 0.25 h is 7190 ng/mL, the concentration at 0.5 h was determined as 6430 ng/mL and the concentration at 1 h came to 5430 ng/mL. For the same compound, in data set [1] (mouse, IV, 60 mg/kg, mice), the concentration at 2 h was 2910 ng/mL, the concentration at 4 h turned out to be 2580 ng/mL, the concentration at 8 h is 555 ng/mL and the concentration at 24 h is 29.6 ng/mL. Moreover, in data set [1] (IV, 5, 30 and 60 mg/kg, mice), the “dose dependence of blood drug concentrations” value is “linear increase”. In data set [1] (setting [3]), the AUC(0-inf) worked out at 3310 ng·h/mL, the AUC(0-t) was found to be 3300 ng·h/mL, the C0 is 5720 ng/mL and the concentration peaked (Cmax) at 4300 ng/mL. In data set [1] (setting [3]), the Tmax was 0.08 h, the clearance is 25.2 mL/min/kg, the half-life is 3.99 h and the MRT inf turned out to be 1.74 h. The Vd in data set [1] (setting [3]) was determined as 8.7 L/kg. Moreover, in data set [1] (setting [4]), the area under the curve AUC(0-inf) is 13200 ng·h/mL, the AUC(0-t) was determined as 13100 ng·h/mL, the C0 was 10200 ng/mL and the clearance is 37.8 mL/min/kg. Besides, in data set [1] (setting [4]), the half-life was 4.93 h, the MRT inf was 2.95 h and the Vd is 6.7 L/kg. Further, in data set [1] (setting [5]), the AUC(0-inf) worked out at 26400 ng·h/mL, the AUC(0-t) came to 26200 ng·h/mL, the C0 came out at 16300 ng/mL and the clearance is 37.8 mL/min/kg. In data set [1] (setting [5]), the half-life is 4.01 h, the MRT inf was 3.39 h and the Vd was determined as 7.71 L/kg. In addition, in data set [1] (setting [6]), the AUC(0-inf) worked out at 1270 ng·h/mL, the exposure AUC(0-t) was found to be 1210 ng·h/mL, the peak level (Cmax) was 474 ng/mL and the Tmax came out at 0.5 h. In data set [1] (setting [6]), the half-life was 1.53 h and the MRT inf turned out to be 3.08 h. Also, the bioavailability in data set [1] (mouse, plasma, PO, 10 mg/kg, ICR mice, read-out: F (oral bioavailability)) turned out to be 18.3%.

A word on the IC50: it is the concentration needed to halve the response being measured. In the case of `COc1cc(N2CCC(N3CCN(C)CC3)CC2)ccc1Nc1ncc(Cl)c(Nc2ccccc2P(C)(C)=O)n1` [Brigatinib, brigatinib], in the data set on EML4-ALK Ba/F3 cells (Mus musculus, BaF3, 48 h), the concentration for half-maximal inhibition (IC50) is 17.3 nM. Besides, in the data set on kinase panels (reported data ref Zhang et al, 2016), the “S(10)” value is recorded as 0.34.

For `CCc1cc2c(cc1N1CCC(N3CCOCC3)CC1)C(C)(C)c1[nH]c3cc(C#N)ccc3c1C2=O` [Alectinib, alectinib], the “S(10)” value in the data set on kinase panels (reported data ref Sakamoto et al, 2011) was 0.07.

Consider `C[C@H]1Oc2cc(cnc2N)-c2c(nn(C)c2C#N)CN(C)C(=O)c2ccc(F)cc21` [Lorlatinib, lorlatinib], for which the IC50 in the data set with EML4-ALK Ba/F3 cells worked out at 1.5 nM.

For the compound `C[C@@H](Oc1cc(-c2cnn(C3CCNCC3)c2)cnc1N)c1c(Cl)ccc(F)c1Cl` [Crizotinib, crizotinib], in the data set with kinase panels (setting [7]), the “S(35)” value is listed as 0.21 and the “number of kinases with ctrl ≤35%” value is recorded as 94. For the same compound, in data set [2], the half-inhibitory concentration (IC50) was 1120 nM.

In the data set on EML4-ALK Ba/F3 cells (Mus musculus, BaF3, 48 h), `Cc1cc(Nc2ncc(Cl)c(Nc3ccccc3S(=O)(=O)C(C)C)n2)c(OC(C)C)cc1C1CCNCC1` [Ceritinib, ceritinib] displayed an IC50 of 1.2 nM. Further, the “S(10)” value with kinase panels (reported data ref Jang et al, 2017) is 0.19.
